The nature of assay [1]: Positive chronotropic activity in isolated guinea pig right atrium at 5 uM relative to control. It counts as functional, Cavia porcellus, Cardiac atrium.
A short description of assay [2]: Negative inotropic activity assessed as decrease in developed tension in isolated guinea pig left atrium. It is filed as functional, tissue-based. The settings on record: Cavia porcellus, Cardiac atrium.
Assay [3] relates to Aorta. Nature of the assay: Inhibition of calcium-induced contraction of potassium ion depolarized guinea pig aortic strips at 100 uM. It is filed as functional. The settings on record: Cavia porcellus.
Assay [4] is described as follows: Activity against alternating current-induced arrhythmia in guinea pig left atrium at 50 uM. It counts as functional, Cavia porcellus, Cardiac atrium.
Assay [5] is described as follows: Negative inotropic activity assessed as decrease in developed tension in isolated guinea pig left atrium at 1 uM relative to control. It counts as functional, Cavia porcellus, Cardiac atrium. Further details: scale not given: the % may be the effect or the level left.
Assay [6] is described as follows: Negative chronotropic activity assessed as decrease in atrial rate in isolated guinea pig right atrium at 5 uM relative to control. It is filed as functional, Cavia porcellus, Cardiac atrium. Set-up: scale not given: the % may be the effect or the level left.
Assay [7] deals with Aorta. Nature of the assay: Inhibition of calcium-induced contraction of potassium ion depolarized guinea pig aortic strips at 50 uM. It counts as functional. The note with it: Cavia porcellus.
The nature of assay [8]: Activity against alternating current-induced arrhythmia in guinea pig left atrium at 1 uM. It is filed as functional, Cavia porcellus, Cardiac atrium.
The nature of assay [9]: Negative inotropic activity assessed as decrease in developed tension in isolated guinea pig left atrium at 10 uM relative to control. It is filed as functional, Cavia porcellus, Cardiac atrium. Further details: scale not given: the % may be the effect or the level left.
The nature of assay [10]: Negative chronotropic activity assessed as decrease in atrial rate in isolated guinea pig right atrium at 10 uM relative to control. Further details: scale not given: the % may be the effect or the level left. It counts as functional, Cavia porcellus, Cardiac atrium.
Assay [11] can be described thus: Activity against alternating current-induced arrhythmia in guinea pig left atrium at 10 uM. It is filed as functional, Cavia porcellus, Cardiac atrium.
Assay [12] in a line: Negative inotropic activity assessed as decrease in developed tension in isolated guinea pig left atrium at 0.1 uM relative to control. It counts as functional, Cavia porcellus, Cardiac atrium. Further details: scale not given: the % may be the effect or the level left.
Assay [13] can be described thus: Activity against alternating current-induced arrhythmia in guinea pig left atrium. It counts as functional, tissue-based. The settings on record: Cavia porcellus, Cardiac atrium.
The nature of assay [14]: Positive chronotropic activity in isolated guinea pig right atrium at 1 uM relative to control. It counts as functional, Cavia porcellus, Cardiac atrium.
The nature of assay [15]: Negative inotropic activity assessed as decrease in developed tension in isolated guinea pig left atrium at 50 uM relative to control. It is filed as functional, Cavia porcellus, Cardiac atrium. Set-up: scale not given: the % may be the effect or the level left.
For assay [16], the system named is Heart. In words: Heart rate in spontaneously beating Langendorff-perfused guinea pig heart at 10 nM. It counts as functional, Cavia porcellus. Set-up: unit not given here.
The test system of assay [17] is Heart. Nature of the assay: Atrioventricular conduction time in spontaneously beating Langendorff-perfused guinea pig heart at 10 nM. It counts as functional, Cavia porcellus.
Assay [18] has as its system Heart. In words: Intraventricular conduction time in spontaneously beating Langendorff-perfused guinea pig heart at 10 nM. It counts as functional, Cavia porcellus.
Assay [19] concerns Heart. In words: Ventricular action potential duration in spontaneously beating Langendorff-perfused guinea pig heart at 10 nM. It counts as functional, Cavia porcellus.
The test system of assay [20] is Heart. In words: Heart rate in spontaneously beating Langendorff-perfused guinea pig heart at 0.1uM. Further details: unit: beats/min. It is filed as functional, Cavia porcellus.
Assay [21] relates to Heart. Nature of the assay: Atrioventricular conduction time in spontaneously beating Langendorff-perfused guinea pig heart at 0.1 uM. It is filed as functional, Cavia porcellus.
Assay [22] concerns Heart. In words: Intraventricular conduction time in spontaneously beating Langendorff-perfused guinea pig heart at 0.1 uM. It is filed as functional, Cavia porcellus.
Assay [23] relates to Heart. In words: Heart rate in spontaneously beating Langendorff-perfused guinea pig heart at 1 uM. It counts as functional, Cavia porcellus. Set-up: unit not given here.
Assay [24] has as its system Heart. Nature of the assay: Ventricular action potential duration in spontaneously beating Langendorff-perfused guinea pig heart at 0.1 uM. It counts as functional, Cavia porcellus.
Assay [25] relates to Heart. Nature of the assay: Atrioventricular conduction time in spontaneously beating Langendorff-perfused guinea pig heart at 1 uM. It counts as functional, Cavia porcellus.
The subject of assay [26] is Heart. Nature of the assay: Intraventricular conduction time in spontaneously beating Langendorff-perfused guinea pig heart at 1 uM. It is filed as functional, Cavia porcellus.
Assay [27] has as its system Heart. Nature of the assay: Ventricular action potential duration in spontaneously beating Langendorff-perfused guinea pig heart at 1 uM. It counts as functional, Cavia porcellus.
Assay [28] has as its system Heart. Nature of the assay: Heart rate in spontaneously beating Langendorff-perfused guinea pig heart at 10 uM. Further details: unit not given here. It is filed as functional, Cavia porcellus.
For assay [29], the system named is Heart. In words: Atrioventricular conduction time in spontaneously beating Langendorff-perfused guinea pig heart at 10 uM. It counts as functional, Cavia porcellus.
Assay [30] has as its system Heart. Nature of the assay: Intraventricular conduction time in spontaneously beating Langendorff-perfused guinea pig heart at 10 uM. It is filed as functional, Cavia porcellus.
Assay [31] has as its system Heart. In words: Ventricular action potential duration in spontaneously beating Langendorff-perfused guinea pig heart at 10 uM. It is filed as functional, Cavia porcellus.
In assay [32] the test system is Heart. In words: Heart rate in spontaneously beating Langendorff-perfused guinea pig heart at 1 nM. It counts as functional, Cavia porcellus. Set-up: unit not given here.
In assay [33] the test system is Heart. In words: Atrioventricular conduction time in spontaneously beating Langendorff-perfused guinea pig heart at 1 nM. It is filed as functional, Cavia porcellus.
Assay [34] relates to Heart. Nature of the assay: Intraventricular conduction time in spontaneously beating Langendorff-perfused guinea pig heart at 1 nM. It is filed as functional, Cavia porcellus.
The test system of assay [35] is Heart. Nature of the assay: Ventricular action potential duration in spontaneously beating Langendorff-perfused guinea pig heart at 1 nM. It counts as functional, Cavia porcellus.
Assay [36] can be described thus: Negative inotropic activity assessed as decrease in developed tension in isolated guinea pig left atrium at 50 nM relative to control. It counts as functional, Cavia porcellus, Cardiac atrium. Set-up: scale not given: the % may be the effect or the level left.
Assay [37] in a line: Negative chronotropic activity assessed as decrease in atrial rate in isolated guinea pig right atrium at 100 uM relative to control. Set-up: scale not given: the % may be the effect or the level left. It counts as functional, Cavia porcellus, Cardiac atrium.
A short description of assay [38]: Activity against alternating current-induced arrhythmia in guinea pig left atrium at 5 uM. It is filed as functional, Cavia porcellus, Cardiac atrium.
Assay [39] is described as follows: Positive chronotropic activity in isolated guinea pig right atrium relative to control. It counts as functional, Cavia porcellus, Cardiac atrium.
Assay [40] can be described thus: Negative inotropic activity assessed as decrease in developed tension in isolated guinea pig left atrium at 0.5 uM relative to control. It is filed as functional, Cavia porcellus, Cardiac atrium. Further details: scale not given: the % may be the effect or the level left.

Drawing on ChEMBL document CHEMBL1139835, “Novel quinolizidinyl derivatives as antiarrhythmic agents” (J Med Chem, 2007), this text covers Activity, EC50 and inhibition for seven compounds.

Structures are written as SMILES. pEC50: −log10 of the molar value.

In general, pEC50 refers to −log10 of the EC50, conventionally taken in molar units. A word on the inhibition: it is the drop in the measured response relative to a control, in per cent. For the compound `CCN(CC)CC(=O)Nc1c(C)cccc1C` [LIDOCAINE], the Activity in [1] was 29%; in assay [4], 34%; in assay [5] it was 88%. In addition, the negative-log EC50 (pEC50) in assay [2] is 7.77. Further, in the assay on Aorta [3], the inhibition at 100 µM came out at 14%.

For the compound `Cc1cc([N+](=O)[O-])cc(C)c1OC[C@H]1CCCN2CCCC[C@H]12`, in assay [2], the pEC50 is 6.22. Further, the Activity turned out to be 25% in assay [6], 23% in assay [8] and 83% in [9]. Further, in the assay on Aorta [7], the inhibition at 50 µM was 19%.

Regarding `Cc1cccc(C)c1OC[C@H]1CCCN2CCCC[C@H]12`, in [2], the pEC50 is 7.85. The inhibition at 100 µM in the assay with Aorta [3] is 21%. Further, the Activity came to 13% in assay [10], 35% in assay [11] and 68% in [12].

`Cc1cccc(C)c1NC(=O)C[C@@H]1CCCN2CCCC[C@H]12`: the negative logarithm of the EC50 (pEC50) is 5.24 in assay [13] and 6.21 in [2]. Moreover, the values for the Activity in assay [14], in [4] and in assay [15] were 8%, 78% and 95%, respectively. Moreover, in the assay on Aorta [3], the inhibition at 100 µM was determined as 5%.

`Cc1cccc(C)c1OC[C@@H]1CCCN2CCCC[C@H]12`: the Activity was determined as 215 with Heart [16]; 64 ms with Heart [17]; 30 ms with Heart [18]; 160 ms in the assay with Heart [19]; 210 in the assay with Heart [20]; 66 ms with Heart [21]. The Activity in the assay on Heart [22] came to 28 ms; with Heart [23], 206; in the assay with Heart [24] it was 170 ms; with Heart [25], 68 ms; in the assay with Heart [26], 30 ms; in the assay on Heart [27] it was 200 ms. For the same compound, the Activity is listed as 203 in the assay on Heart [28]; 70 ms with Heart [29]; 31 ms in the assay with Heart [30]; 210 ms with Heart [31]; 218 with Heart [32]; 60 ms in the assay on Heart [33]. In addition, the Activity turned out to be 30 ms in the assay with Heart [34]; 155 ms in the assay with Heart [35]; 19% in [10]; 176% in assay [11]; 25% in assay [36]. The same compound gave a pEC50 in assay [13] of 6.34. Besides, the inhibition at 50 µM in the assay on Aorta [7] was determined as 26%.

As for `Cc1cc(NS(C)(=O)=O)cc(C)c1OC[C@@H]1CCCN2CCCC[C@H]12`, the pEC50 in assay [13] is 5.90; in assay [2], 7.51. The Activity in assay [37] was found to be 12%; in assay [38] it was 60%; in assay [5] it was 83%. For the same compound, the inhibition at 100 µM in the assay on Aorta [3] turned out to be 30%.

Consider `CCN(CC)CCNC(=O)c1ccc(N)cc1` [PROCAINAMIDE], for which the negative logarithm of the EC50 (pEC50) in assay [2] was 7.85. For the same compound, the Activity in assay [39] came out at 9%; in assay [4] it was 11%; in assay [40] it was 92%. The inhibition at 100 µM in the assay on Aorta [3] amounted to 3%.
